Holding throughout (assay): In vitro MIC, broth dilution
What all share (format): cell-based
(Broth dilution looks for growth in wells or tubes with falling amounts of substance.)

For experiment [1], the system named is S. marcescens GC 4077. Particulars: Serratia marcescens, GC4077; S. marcescens GC 4077; read-out: MIC.
Experiment [2] concerns K. pneumoniae GC 4534. As to conditions: Klebsiella pneumoniae, GC4534; K. pneumoniae GC 4534; read-out: MIC.
In experiment [3] the test system is C. albicans GC 3066. Particulars: Candida albicans, GC3066; C. albicans GC 3066; read-out: MIC.
Experiment [4] relates to E. cloacae GC 3783. Particulars: Enterobacter cloacae, GC3783; E. cloacae GC 3783; read-out: MIC.
Experiment [5] has as its system E. coli GC 4559. Particulars: Escherichia coli, GC4559; E. coli GC 4559; read-out: MIC.
The subject of experiment [6] is P. aeruginosa GC 4532. As to conditions: Pseudomonas aeruginosa, GC4532; P. aeruginosa GC 4532; read-out: MIC.
Experiment [7] deals with S. aureus GC 4536. Particulars: Staphylococcus aureus, GC4536; S. aureus GC 4536; read-out: MIC. Summed up:
(§1)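 Serial antibiotic dilutions (64-0.06 μg/ml) in Mueller-Hinton II were challenged with 5×10^5 CFU/ml bacteria. After an 18 hour ambient-air incubation at 35° C, the lowest concentration inhibiting growth was recorded as MIC, following NCCLS recommendations.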

Experiment [8] relates to CNS GC 4547. Summed up: as §1
Experiment [9] has as its system E. faecalis GC 842. Particulars: Enterococcus faecalis, GC842; E. faecalis GC 842; read-out: MIC. Summed up:
as §1

The subject of experiment [10] is CNS GC 4538. In outline: as §1
In experiment [11] the test system is S. aureus GC 2216. As to conditions: Staphylococcus aureus, GC2216; S. aureus GC 2216; read-out: MIC. In outline:
as §1

The test system of experiment [12] is S. aureus GC 1131. As to conditions: Staphylococcus aureus, GC1131; S. aureus GC 1131; read-out: MIC. Summed up: as §1
The test system of experiment [13] is CNS GC 4537. In outline: as §1
In experiment [14] the test system is E. faecalis GC 4555. As to conditions: Enterococcus faecalis, GC4555; E. faecalis GC 4555; read-out: MIC. Summed up:
as §1

The subject of experiment [15] is E. faecalis GC 2242. As to conditions: Enterococcus faecalis, GC2242; E. faecalis GC 2242; read-out: MIC. In outline:
as §1

Experiment [16] concerns E. coli GC 2203. As to conditions: Escherichia coli, GC2203; E. coli GC 2203; read-out: MIC.
For experiment [17], the system named is M. morganii GC 4531. Particulars: Morganella morganii, GC4531; M. morganii GC 4531; read-out: MIC.
The test system of experiment [18] is E. coli GC 3226. Particulars: Escherichia coli, GC3226; E. coli GC 3226; read-out: MIC.
For experiment [19], the system named is P. aeruginosa GC 2214. Particulars: Pseudomonas aeruginosa, GC2214; P. aeruginosa GC 2214; read-out: MIC.
Experiment [20] concerns E. coli GC 4560. As to conditions: Escherichia coli, GC4560; E. coli GC 4560; read-out: MIC.

Structures are written as SMILES. ≈ marks a conversion by molar mass, not a printed value. Where two headings read alike, the source gives them in different places.

By MIC is commonly meant the least concentration at which growth counts as inhibited. Consider `COc1ccc(Cn2c(=O)ccn([C@@H]3OC([C@H](O)[C@H](NCCCNC(=O)[C@@H](NC(=O)[C@H](CCCNC(=N)N[N+](=O)[O-])NC(=O)N[C@H](C(=O)OCc4ccccc4)C(C)C)C(C)O)C(=O)O)[C@@H](O)[C@H]3O)c2=O)cc1` (stereo partly drawn) [Example 47, (4S,8S,11S,18S)-18-[(R)-[(3S,4R,5R)-3,4-Dihydroxy-5-(3-(4-methoxybenzyl)-2,4-dioxo-3,4-dihydro-1(2H)-pyrimidinyl)tetrahydro-2-furanyl](hydroxy)methyl]-8-(3-{[(2,2-dioxido-2lambda˜1˜-diazanyl)(imino)methyl]amino}propyl)-11-[(1S)-1-hydroxyethyl]-4-isopropyl-3,6,9,12-tetraoxo-1-phenyl-2-oxa-5,7,10,13,17-pentaazanonadecan-19-oic acid], for which the MIC in experiment [1] was 128 µg/mL (≈ 124 µM); in [2], > 128 µg/mL; in experiment [3] it was 128 µg/mL (≈ 124 µM); in [4] it was > 128 µg/mL; in [5], > 128 µg/mL; in experiment [6] it was 128 µg/mL (≈ 124 µM). The MIC was > 128 µg/mL in experiment [7]; > 128 µg/mL in [8]; 128 µg/mL (≈ 124 µM) in [9]; > 128 µg/mL in [10]; > 128 µg/mL in [11]; > 128 µg/mL in experiment [12]. Moreover, the MIC is > 128 µg/mL in [13]; 128 µg/mL (≈ 124 µM) in experiment [14]; 64 µg/mL (≈ 62.1 µM) in experiment [15]; > 128 µg/mL in experiment [16]; 128 µg/mL (≈ 124 µM) in [17]; > 128 µg/mL in [18]. Besides, the MIC is > 128 µg/mL in experiment [19] and 128 µg/mL (≈ 124 µM) in experiment [20].

Regarding `COc1ccc(Cn2c(=O)ccn([C@@H]3OC([C@H](O)[C@H](NCCCNC(=O)[C@@H](N)C(C)O)C(=O)O)[C@@H](O)[C@H]3O[Si](C)(C)C(C)(C)C)c2=O)cc1` (stereo partly shown) [Example 48], the MIC in experiment [1] was 128 µg/mL (≈ 180 µM); in [2], > 128 µg/mL; in experiment [3] it was 128 µg/mL (≈ 180 µM); in experiment [4] it was > 128 µg/mL; in experiment [5], > 128 µg/mL; in experiment [6] it was 128 µg/mL (≈ 180 µM). The MIC in experiment [7] is > 128 µg/mL; in experiment [8] (CNS GC 4547, read-out: MIC), 128 µg/mL (≈ 180 µM); in experiment [9], 128 µg/mL (≈ 180 µM); in experiment [10] (CNS GC 4538, read-out: MIC), > 128 µg/mL; in [11], > 128 µg/mL; in experiment [12], > 128 µg/mL. Further, the MIC in [13] (CNS GC 4537, read-out: MIC) is > 128 µg/mL; in experiment [14] it was 128 µg/mL (≈ 180 µM); in experiment [15] it was 64 µg/mL (≈ 90.2 µM); in experiment [16], > 128 µg/mL; in [17], 128 µg/mL (≈ 180 µM); in [18], > 128 µg/mL. In addition, the figures for the MIC in experiment [19] and in experiment [20] were > 128 µg/mL and 128 µg/mL (≈ 180 µM), respectively.

In the case of `COc1ccc(Cn2c(=O)ccn([C@@H]3OC([C@H](O)[C@H](NCCCNC(=O)[C@H](CC(C)C)NC(=O)[C@H](CCCNC(=N)N[N+](=O)[O-])NC(=O)N[C@H](C(=O)OCc4ccccc4)C(C)C)C(=O)O)[C@@H](O)[C@H]3O)c2=O)cc1` (stereo partly drawn) [Example 49, (4S,8S,11S,18S)-18-[(R)-[(3S,4R,5R)-3,4-Dihydroxy-5-(3-(4-methoxybenzyl)-2,4-dioxo-3,4-dihydro-1(2H)-pyrimidinyl)tetrahydro-2-furanyl](hydroxy)methyl]-8-(3-{[(2,2-dioxido-2lambda˜1˜-diazanyl)(imino)methyl]amino}propyl)-11-isobutyl-4-isopropyl-3,6,9,12-tetraoxo-1-phenyl-2-oxa-5,7,10,13,17-pentaazanonadecan-19-oic acid], the MIC was > 128 µg/mL in experiment [1]; > 128 µg/mL in experiment [2]; 128 µg/mL (≈ 123 µM) in [3]; > 128 µg/mL in [4]; > 128 µg/mL in [5]; 128 µg/mL (≈ 123 µM) in experiment [6]. Besides, the MIC is > 128 µg/mL in [7]; > 128 µg/mL in [8]; 128 µg/mL (≈ 123 µM) in experiment [9]; > 128 µg/mL in experiment [10]; > 128 µg/mL in experiment [11]; > 128 µg/mL in experiment [12]. The MIC in experiment [13] was > 128 µg/mL; in experiment [14], > 128 µg/mL; in [15], 128 µg/mL (≈ 123 µM); in experiment [16], > 128 µg/mL; in experiment [17], 128 µg/mL (≈ 123 µM); in [18], > 128 µg/mL. Further, the MIC is 128 µg/mL (≈ 123 µM) in [19] and > 128 µg/mL in experiment [20].

For the compound `COc1ccc(Cn2c(=O)ccn([C@@H]3OC([C@H](O)[C@H](NCCCNC(=O)[C@H](CC(C)C)NC(=O)[C@H](CCCNC(=N)N)NC(=O)N[C@H](C(=O)O)C(C)C)C(=O)O)[C@@H](O)[C@H]3O)c2=O)cc1` (stereo partly drawn) [Example 50, (2S,6S,9S,16S)-6-(3-{[Amino(imino)methyl]amino}propyl)-16-[(R)-[(3S,4R,5R)-3,4-dihydroxy-5-(3-(4-methoxybenzyl)-2,4-dioxo-3,4-dihydro-1(2H)-pyrimidinyl)tetrahydro-2-furanyl](hydroxy)-methyl]-9-isobutyl-2-isopropyl-4,7,10-trioxo-3,5,8,11,15-pentaazaheptadecane-1,17-dioic acid], the MIC in experiment [1] is > 128 µg/mL; in experiment [2] it was > 128 µg/mL; in experiment [3], 128 µg/mL (≈ 141 µM); in experiment [4], > 128 µg/mL; in experiment [5], > 128 µg/mL; in [6], 128 µg/mL (≈ 141 µM). For the same compound, the MIC in experiment [7] was > 128 µg/mL; in experiment [8] (CNS GC 4547, read-out: MIC), > 128 µg/mL; in experiment [9], > 128 µg/mL; in experiment [10] (CNS GC 4538, read-out: MIC), > 128 µg/mL; in experiment [11], > 128 µg/mL; in experiment [12], > 128 µg/mL. Moreover, the MIC in experiment [13] (CNS GC 4537, read-out: MIC) is > 128 µg/mL; in [14] it was > 128 µg/mL; in experiment [15] it was 128 µg/mL (≈ 141 µM); in experiment [16], > 128 µg/mL; in [17] it was 128 µg/mL (≈ 141 µM); in experiment [18], > 128 µg/mL. In addition, the results for the minimum inhibitory concentration (MIC) in [19] and in experiment [20] were 128 µg/mL (≈ 141 µM) and > 128 µg/mL, respectively.

As for `COc1ccc(Cn2c(=O)ccn([C@@H]3OC([C@H](O)[C@H](NCCCNC(=O)[C@H](CC(C)C)NC(=O)OCc4ccccc4)C(=O)OC(C)(C)C)[C@@H](O)[C@H]3O)c2=O)cc1` (stereo partly drawn) [Example 51, tert-Butyl (5S,12S)-12-[(R)-[(3S,4R,5R)-3,4-dihydroxy-5-(3-(4-methoxybenzyl)-2,4-dioxo-3,4-dihydro-1(2H)-pyrimidinyl)tetrahydro-2-furanyl](hydroxy)methyl]-5-isobutyl-3,6-dioxo-1-phenyl-2-oxa-4,7,11-triazatridecan-13-oate], the MIC in experiment [1] was > 128 µg/mL; in experiment [2] it was > 128 µg/mL; in experiment [3], 128 µg/mL (≈ 160 µM); in [4] it was > 128 µg/mL; in experiment [5], > 128 µg/mL; in experiment [6], 128 µg/mL (≈ 160 µM). The MIC in experiment [7] is > 128 µg/mL; in [8] (CNS GC 4547, read-out: MIC), > 128 µg/mL; in [9] it was 128 µg/mL (≈ 160 µM); in experiment [10] (CNS GC 4538, read-out: MIC), 128 µg/mL (≈ 160 µM); in [11] it was > 128 µg/mL; in [12] it was > 128 µg/mL. Further, the MIC in [13] (CNS GC 4537, read-out: MIC) was > 128 µg/mL; in experiment [14], 128 µg/mL (≈ 160 µM); in experiment [15] it was 128 µg/mL (≈ 160 µM); in experiment [16], > 128 µg/mL; in experiment [17] it was 128 µg/mL (≈ 160 µM); in experiment [18], > 128 µg/mL. For the same compound, the MIC in [19] and in experiment [20] was 128 µg/mL (≈ 160 µM) in each case.

Values taken from US6858591B2, “Antibiotic AA 896 analogs” (Wyeth Holdings Corporation, priority 2001, dated 2005).
